# From ChEMBL document CHEMBL5321294, “Evolution of Slow-Binding Inhibitors Targeting Histone Deacetylase Isoforms” (J Med Chem, 2023)
# Non-standard residues stand in square brackets, D forms with d. Residues, ends and D or L forms follow the SMILES beside them. *: point of attachment. Asu = N[C@@H](CCCCCC(=O)O)C(=O)O; NHOH = ON*
# Legend:
# Histone deacetylase 3 [1] = target: T1, Histone deacetylase 3 (Homo sapiens, UniProt O15379)
# in vivo = conditions: C57BL/6, mouse, brain, ip, 25 mg/kg
# Description: Half life in C57BL/6 mouse brain at 25 mg/kg, ip
# Histone deacetylase 1 [2] = target: T2, Histone deacetylase 1 (Homo sapiens, UniProt Q13547)
# Histone deacetylase 2 [3] = target: T3, Histone deacetylase 2 (Homo sapiens, UniProt Q92769)
# Description: Binding affinity to HDAC2 (unknown origin) using Ac-LGKac-AMC as substrate assessed as half life
# Histone deacetylase 3 [4] = target: T1, Histone deacetylase 3; remark: listed apart in the source
# Description: Binding affinity to HDAC3 (unknown origin) using Ac-LGKac-AMC as substrate assessed as half life
# Homo sapiens [5] = organism: Homo sapiens; assay: Selectivity index, ratio of IC50 for Inhibition of human HDAC3 to Inhibition of human IC50 for HDAC2
# Histone deacetylase 3 [6] = target: T1, Histone deacetylase 3; assay: Binding affinity to human HDAC3 assessed as half life
# Histone deacetylase 2 [7] = target: T3, Histone deacetylase 2; assay: Binding affinity to human HDAC2 assessed as half life
# Histone deacetylase 1 [8] = target: T2, Histone deacetylase 1; assay: Binding affinity to human HDAC1 assessed as half life
# Homo sapiens [9] = organism: Homo sapiens; assay: Selectivity index, ratio of IC50 for Inhibition of human HDAC3 to IC50 for Inhibition of human HDAC1
# Histone deacetylase 2 [10] = target: T3, Histone deacetylase 2; assay: Binding affinity to human HDAC2 assessed as residence time
# Histone deacetylase 3 [11] = target: T1, Histone deacetylase 3; assay: Binding affinity to human HDAC3 assessed as residence time
# Histone deacetylase 3 [12] = target: T1, Histone deacetylase 3; assay: Binding affinity to human HDAC3 assessed as dissociation rate constant (Koff)
# Histone deacetylase 3 [13] = target: T1, Histone deacetylase 3; assay: Binding affinity to human HDAC3 assessed as binding rate constant (Kon)
# Histone deacetylase 1 [14] = target: T2, Histone deacetylase 1; assay: Binding affinity to HDAC1 (unknown origin) assessed as inhibition constant
# Histone deacetylase 3 [15] = target: T1, Histone deacetylase 3; assay: Binding affinity to HDAC3 (unknown origin) assessed as inhibition constant
# [16] = Half life in C57BL/6 mouse brain at 45 mg/kg, ip; type: ADME, organism-based
# Histone deacetylase 2 [17] = target: T3, Histone deacetylase 2; remark: listed apart in the source
# [18] = target: T4, Protein deacetylase HDAC6 (Homo sapiens, UniProt Q9UBN7); assay: Binding affinity to recombinant human HDAC6 using Ac-Leu-Gly-Lys(Ac)-AMC as substrate measured after 60 mins assessed as inhibition constant by fluorescence based assay
# T4 sequence (Q9UBN7 whole entry): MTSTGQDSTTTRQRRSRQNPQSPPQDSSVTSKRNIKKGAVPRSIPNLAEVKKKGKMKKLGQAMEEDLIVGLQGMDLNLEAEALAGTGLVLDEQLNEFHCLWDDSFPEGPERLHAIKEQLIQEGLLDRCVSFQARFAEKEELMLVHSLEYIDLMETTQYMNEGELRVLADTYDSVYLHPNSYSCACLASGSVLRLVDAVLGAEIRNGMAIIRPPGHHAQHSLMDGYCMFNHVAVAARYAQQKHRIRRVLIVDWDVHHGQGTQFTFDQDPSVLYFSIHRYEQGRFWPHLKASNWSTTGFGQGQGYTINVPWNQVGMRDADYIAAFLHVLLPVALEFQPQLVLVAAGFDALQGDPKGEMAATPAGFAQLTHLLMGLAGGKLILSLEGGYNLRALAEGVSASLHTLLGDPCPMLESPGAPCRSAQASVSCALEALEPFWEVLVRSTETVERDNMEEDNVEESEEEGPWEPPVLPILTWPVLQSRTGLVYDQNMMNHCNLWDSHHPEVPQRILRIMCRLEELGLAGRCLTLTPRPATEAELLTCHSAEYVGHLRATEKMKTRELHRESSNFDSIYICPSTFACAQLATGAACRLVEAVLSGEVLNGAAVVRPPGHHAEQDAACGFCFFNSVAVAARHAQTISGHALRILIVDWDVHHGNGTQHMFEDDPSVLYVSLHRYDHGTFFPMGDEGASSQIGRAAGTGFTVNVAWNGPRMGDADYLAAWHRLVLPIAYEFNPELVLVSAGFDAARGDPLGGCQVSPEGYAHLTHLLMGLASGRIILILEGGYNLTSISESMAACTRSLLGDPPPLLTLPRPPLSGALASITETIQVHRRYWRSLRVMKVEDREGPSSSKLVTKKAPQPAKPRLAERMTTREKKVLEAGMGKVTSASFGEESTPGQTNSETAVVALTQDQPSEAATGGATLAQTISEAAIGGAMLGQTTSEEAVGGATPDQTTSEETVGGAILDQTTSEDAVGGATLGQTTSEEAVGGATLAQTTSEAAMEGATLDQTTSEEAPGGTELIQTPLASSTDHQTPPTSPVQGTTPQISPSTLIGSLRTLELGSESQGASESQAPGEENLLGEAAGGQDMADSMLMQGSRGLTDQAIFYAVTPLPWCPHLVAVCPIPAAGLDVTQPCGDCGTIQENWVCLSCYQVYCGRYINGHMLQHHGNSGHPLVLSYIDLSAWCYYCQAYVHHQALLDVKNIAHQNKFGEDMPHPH
# [19] = target: T5, Protein deacetylase HDAC6 (Homo sapiens) (UniProt Q9UBN7); assay: Binding affinity to recombinant human HDAC6 using Ac-Leu-Gly-Lys(Ac)-AMC as substrate measured after 60 mins assessed as binding constant (k2) by fluorescence based assay
# T5 sequence (whole entry): T4 sequence (Q9UBN7 whole entry)
# [20] = target: T4, Protein deacetylase HDAC6; assay: Binding affinity to recombinant human HDAC6 using Ac-Leu-Gly-Lys(Ac)-AMC as substrate measured after 60 mins assessed as inhibition constant (ki,1) by fluorescence based assay
# Histone deacetylase 3 [21] = target: T1, Histone deacetylase 3; assay: Binding affinity to HDAC3 (unknown origin) assessed as inhibition constant(ki,1)
# Histone deacetylase 3 [22] = target: T1, Histone deacetylase 3; assay: Binding affinity to HDAC3 (unknown origin) assessed as binding constant(k2)
# [23] = target: T5, Protein deacetylase HDAC6 (Homo sapiens); assay: Binding affinity to recombinant human HDAC6 using Ac-Leu-Gly-Lys(Ac)-AMC as substrate assessed as residence time
# Histone deacetylase 3 [24] = target: T1, Histone deacetylase 3; assay: Binding affinity to HDAC3 (unknown origin) assessed as binding constant(k-2)
# Histone deacetylase 3 [25] = target: T1, Histone deacetylase 3; assay: Binding affinity to HDAC3 (unknown origin) assessed as residence time
# [26] = target: T5, Protein deacetylase HDAC6 (Homo sapiens); assay: Binding affinity to recombinant human HDAC6 using Ac-Leu-Gly-Lys(Ac)-AMC as substrate measured after 60 mins assessed as binding constant (k-2) by fluorescence based assay
# Histone deacetylase 1 [27] = target: T2, Histone deacetylase 1; conditions: HEK293T
# Histone deacetylase 8 [28] = target: T6, Histone deacetylase 8 (Homo sapiens, UniProt Q9BY41); assay: Binding affinity to HDAC8 (unknown origin) assessed as inhibition constant(ki,1)
# T6 sequence (Q9BY41 whole entry): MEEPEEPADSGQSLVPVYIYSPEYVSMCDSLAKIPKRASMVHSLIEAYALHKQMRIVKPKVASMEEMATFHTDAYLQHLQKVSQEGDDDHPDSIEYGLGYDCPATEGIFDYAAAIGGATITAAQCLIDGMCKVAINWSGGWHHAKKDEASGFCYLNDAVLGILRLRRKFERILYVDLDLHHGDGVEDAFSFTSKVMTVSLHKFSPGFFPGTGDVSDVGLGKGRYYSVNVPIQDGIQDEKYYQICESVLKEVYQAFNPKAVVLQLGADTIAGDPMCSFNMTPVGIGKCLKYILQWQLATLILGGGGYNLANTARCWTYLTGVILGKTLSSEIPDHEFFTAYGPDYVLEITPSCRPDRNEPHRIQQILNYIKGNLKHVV
# Histone deacetylase 8 [29] = target: T6, Histone deacetylase 8; assay: Binding affinity to HDAC8 (unknown origin) assessed as inhibition constant
# Histone deacetylase 1 [30] = target: T2, Histone deacetylase 1; assay: Inhibition of HDAC1 (unknown origin) measured after 1 hrs by fluorescence based assay
# Histone deacetylase 3 [31] = target: T1, Histone deacetylase 3; assay: Inhibition of HDAC3 (unknown origin) measured after 24 hrs by fluorescence based assay
# Histone deacetylase 3 [32] = target: T1, Histone deacetylase 3; assay: Inhibition of HDAC3 (unknown origin) measured after 1 hrs by fluorescence based assay
# Histone deacetylase 2 [33] = target: T3, Histone deacetylase 2; assay: Inhibition of HDAC2 (unknown origin) measured after 1 hrs by fluorescence based assay
# T3 sequence (Q92769 whole entry): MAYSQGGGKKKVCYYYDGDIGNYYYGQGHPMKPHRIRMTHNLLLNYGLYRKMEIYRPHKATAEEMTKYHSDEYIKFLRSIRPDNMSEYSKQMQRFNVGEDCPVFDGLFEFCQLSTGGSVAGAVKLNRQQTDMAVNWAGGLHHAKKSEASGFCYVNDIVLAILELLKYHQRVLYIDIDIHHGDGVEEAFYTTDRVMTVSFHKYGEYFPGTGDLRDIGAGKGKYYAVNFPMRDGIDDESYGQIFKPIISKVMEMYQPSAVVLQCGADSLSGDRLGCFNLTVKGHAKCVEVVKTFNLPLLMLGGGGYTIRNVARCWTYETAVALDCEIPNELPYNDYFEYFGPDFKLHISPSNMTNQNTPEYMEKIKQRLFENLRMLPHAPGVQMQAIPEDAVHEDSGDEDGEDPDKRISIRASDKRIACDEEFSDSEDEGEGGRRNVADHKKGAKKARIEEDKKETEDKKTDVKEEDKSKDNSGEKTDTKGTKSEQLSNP
# T2 sequence (Q13547 whole entry): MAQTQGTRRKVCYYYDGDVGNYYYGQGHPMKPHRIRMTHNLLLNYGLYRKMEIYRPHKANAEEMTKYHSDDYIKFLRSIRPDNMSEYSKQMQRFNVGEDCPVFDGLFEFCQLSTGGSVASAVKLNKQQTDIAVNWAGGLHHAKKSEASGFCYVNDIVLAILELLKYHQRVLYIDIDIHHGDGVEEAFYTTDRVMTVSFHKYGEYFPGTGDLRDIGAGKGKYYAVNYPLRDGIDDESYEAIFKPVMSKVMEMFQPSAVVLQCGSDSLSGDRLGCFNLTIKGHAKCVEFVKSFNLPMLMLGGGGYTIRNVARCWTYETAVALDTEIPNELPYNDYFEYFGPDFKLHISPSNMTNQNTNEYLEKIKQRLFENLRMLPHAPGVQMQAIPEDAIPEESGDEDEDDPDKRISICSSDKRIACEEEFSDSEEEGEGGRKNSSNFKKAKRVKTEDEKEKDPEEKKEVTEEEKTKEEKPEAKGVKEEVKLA
# T1 sequence (O15379 whole entry): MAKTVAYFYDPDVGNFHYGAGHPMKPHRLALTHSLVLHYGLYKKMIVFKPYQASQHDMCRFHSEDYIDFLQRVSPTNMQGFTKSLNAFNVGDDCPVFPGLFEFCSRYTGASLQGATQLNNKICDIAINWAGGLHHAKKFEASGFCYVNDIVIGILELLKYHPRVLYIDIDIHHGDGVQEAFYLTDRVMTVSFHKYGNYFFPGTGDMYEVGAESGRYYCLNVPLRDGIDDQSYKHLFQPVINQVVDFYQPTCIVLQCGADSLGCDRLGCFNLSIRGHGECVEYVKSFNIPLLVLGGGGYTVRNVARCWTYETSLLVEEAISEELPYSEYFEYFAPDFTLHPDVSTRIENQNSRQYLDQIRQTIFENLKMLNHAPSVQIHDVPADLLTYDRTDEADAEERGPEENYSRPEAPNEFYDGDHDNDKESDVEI
smiles,measurement,setting,value
O=C(CCCCCCC(=O)Nc1ccccc1)NO [VORINOSTAT],T1/2,Histone deacetylase 3 [1],< 0.0667 h
same,half-life,in vivo,0.44 h
same,T1/2,Histone deacetylase 1 [2],< 4 min
Cc1[nH]c2ccccc2c1CCNCc1ccc(/C=C/C(=O)NO)cc1,T1/2,Histone deacetylase 2 [3],> 1670 h
same,T1/2,Histone deacetylase 3 [4],> 1.05 h
CC(=O)Nc1ccc(C(=O)Nc2ccc(F)cc2N)cc1,Ratio IC50,Homo sapiens [5],> 17
same,T1/2,Histone deacetylase 3 [6],1.32 h
same,T1/2,Histone deacetylase 2 [7],0.217 h
same,T1/2,Histone deacetylase 1 [8],2.5 min
same,Ratio IC50,Homo sapiens [9],> 17
same,TIME,Histone deacetylase 2 [10],0.3 h
same,TIME,Histone deacetylase 3 [11],1.9 h
same,K,Histone deacetylase 3 [12],0.009 min⁻¹
same,K,Histone deacetylase 3 [13],5000 M⁻¹ s⁻¹
CCC(=O)CCCCC[C@@H]1NC(=O)[C@H]2CCCCN2C(=O)[C@H]([C@@H](C)CC)NC(=O)[C@H](Cc2c[nH]c3ccccc23)NC1=O,Ki,Histone deacetylase 1 [14],400 nM
same,Ki,Histone deacetylase 3 [15],600 nM
CC(=O)Nc1ccc(C(=O)Nc2cc(-c3cccs3)ccc2N)cc1,T1/2,Histone deacetylase 3 [1],20 h
same,half-life,[16],6.44 h
same,T1/2,Histone deacetylase 2 [17],> 80 h
O=C(CCCCC[C@@H]1NC(=O)[C@H]2CCCN2C(=O)[C@H](Cc2ccccc2)NC(=O)[C@H](Cc2ccccc2)NC1=O)NO (cyclo([Asu](NHOH)FF[dP])),Ki,[18],~1.2 nM
same,K,[19],0.148 min⁻¹
same,Ki,[20],34 nM
same,Ki,Histone deacetylase 3 [21],1.4 nM
same,K,Histone deacetylase 3 [22],0.26 min⁻¹
same,TIME,[23],2.92 h
same,Ki,Histone deacetylase 3 [15],0.2 nM
same,K,Histone deacetylase 3 [24],0.004 min⁻¹
same,TIME,Histone deacetylase 3 [25],4.17 h
same,K,[26],0.006 min⁻¹
Cc1ccc(NC(=O)CCCCCC(=O)Nc2ccccc2N)cc1,T1/2,Histone deacetylase 1 [27],1.5 h
O=C(CCCCCCC(=O)C(F)(F)F)Nc1ccccc1,Ki,Histone deacetylase 8 [28],7300 nM
same,K,Histone deacetylase 3 [22],0.24 min⁻¹
same,K,Histone deacetylase 3 [24],5 10^-3/min
same,TIME,Histone deacetylase 2 [10],2.08 h
same,Ki,Histone deacetylase 8 [29],~33 nM
same,TIME,Histone deacetylase 3 [11],3.33 h
O=C(/C=C(\CO)c1ccccc1)c1ccccc1,IC50,Histone deacetylase 1 [30],3680 nM
same,IC50,Histone deacetylase 3 [31],~50000 nM
same,IC50,Histone deacetylase 3 [32],~50000 nM
same,IC50,Histone deacetylase 2 [33],9190 nM
